Patent US12129237B2, “Substituted diaminocarboxamide and diaminocarbonitrile pyrimidines, compositions thereof, and methods of treatment therewith” (SIGNAL PHARMACEUTICALS, LLC, priority 2011, dated 2024)

biological target: T1, JNK1 (Homo sapiens, UniProt P45983); assay: JNK1 biochemical assays (one or more of: time resolved fluorescence, Z'-LYTE Cascade, radioactive); conditions: Table 2; JNK1 IC50 activity level; read-out: Act. Level
T1 construct: purchased Carna Biosciences
T1 sequence (P45983 whole entry): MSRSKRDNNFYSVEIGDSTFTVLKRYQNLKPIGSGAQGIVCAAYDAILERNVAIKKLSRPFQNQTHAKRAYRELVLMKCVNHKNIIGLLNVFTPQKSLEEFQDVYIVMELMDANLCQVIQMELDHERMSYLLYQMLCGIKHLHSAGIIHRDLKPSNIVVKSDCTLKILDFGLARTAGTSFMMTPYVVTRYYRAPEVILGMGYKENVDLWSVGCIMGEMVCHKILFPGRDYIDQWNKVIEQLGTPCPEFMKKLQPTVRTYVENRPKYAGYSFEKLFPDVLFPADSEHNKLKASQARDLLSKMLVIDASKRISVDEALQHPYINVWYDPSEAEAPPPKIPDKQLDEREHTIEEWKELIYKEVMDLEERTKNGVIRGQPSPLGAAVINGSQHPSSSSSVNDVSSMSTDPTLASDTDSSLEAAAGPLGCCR

IC50 [nM]	Structure (SMILES)
200 to 800	NC(=O)c1cnc(NCCc2ccccn2)nc1Nc1ccccc1 [Example B-63, 4-(phenylamino)-2-(2-(pyridin-2-yl)ethylamino)pyrimidine-5-carboxamide]
1000 to 10000	CC(=O)N1CCC(Nc2ncc(C(N)=O)c(Nc3ccccc3)n2)CC1 [Example B-10, 2-(1-acetylpiperidin-4-ylamino)-4-(phenylamino)pyrimidine-5-carboxamide]
< 200	NC(=O)c1cnc(NC2CC2)nc1Nc1ccccc1 [Example B-36, 2-(cyclopropylamino)-4-(phenylamino)pyrimidine-5-carboxamide]
< 200	CCOc1ccc(Nc2ncc(C(N)=O)c(N[C@H]3CCC[C@@H]3O)n2)cc1 [Example B-1, 2-(4-ethoxyphenylamino)-4-((1S,2S)-2-hydroxycyclopentylamino)pyrimidine-5-carboxamide]
< 200	NC(=O)c1cnc(N[C@H]2CCCc3ccccc32)nc1N[C@@H]1CCC[C@H](O)C1 [Example B-75, 4-((1R,3S)-3-hydroxycyclohexylamino)-2-((S)-1,2,3,4-tetrahydronaphthalen-1-ylamino)pyrimidine-5-carboxamid]
200 to 800	CC(Nc1ncc(C(N)=O)c(Nc2ccccc2)n1)c1ccccc1 (centres unmarked) [Example B-53, 4-(phenylamino)-2-(1-phenylethylamino)pyrimidine-5-carboxamide]

same assay, conditions: Table 3; JNK1 IC50 activity level; read-out: Act. Level

IC50 [nM]	Structure (SMILES)
< 200	CN(C)C(=O)[C@H]1CC[C@H](Nc2ncc(C#N)c(N[C@@H]3CCC[C@H](O)C3)n2)CC1 [Example C-9, (1R,4r)-4-(5-cyano-4-((1R,3S)-3-hydroxycyclohexylamino)pyrimidin-2-ylamino)-N,N-dimethylcyclohexanecarboxamide]
< 200	CN(C)C(=O)[C@H]1CC[C@H](Nc2ncc(C#N)c(N[C@@H]3CCCC[C@H](O)C3)n2)CC1 [Example C-45, (1R,4r)-4-(5-cyano-4-((1R,3S)-3-hydroxycycloheptylamino)pyrimidin-2-ylamino)-N,N-dimethylcyclohexanecarboxamide]

same assay, conditions: one or more of the JNK1 biochemical assays; read-out: Act. Level (JNK1 IC50 activity level)

IC50 [nM]	Structure (SMILES)
< 200	NC(=O)c1cnc(N[C@H]2CC[C@H](OC(F)F)CC2)nc1NC1CCC1 [Example 436, 4-(cyclobutylamino)-2-((1r,4r)-4-(difluoromethoxy)cyclohexylamino)pyrimidine-5-carboxamide]
< 200	CC12CC(Nc3nc(N[C@H]4CC[C@H](O)CC4)ncc3C(N)=O)(C1)C2 [Example 393, 2-((1r,4r)-4-hydroxycyclohexylamino)-4-(3-methylbicyclo[1.1.1]pentan-1-ylamino)pyrimidine-5-carboxamide]
< 200	C[C@@H]1CC[C@@H](Nc2nc(N[C@H](C)C(C)(C)C)ncc2C(N)=O)C[C@H]1O [Example 461, 2-((R)-3,3-dimethylbutan-2-ylamino)-4-((1R,3R,4R)-3-hydroxy-4-methylcyclohexylamino)pyrimidine-5-carboxamide]
< 200	CCC(C)(C)Nc1nc(N[C@H]2CC[C@H](OC3CC3)CC2)ncc1C(N)=O [Example 382, 2-((1r,4r)-4-cyclopropoxycyclohexylamino)-4-(tert-pentylamino)pyrimidine-5-carboxamide]
< 200	CC(C)Nc1ncc(C(N)=O)c(N[C@@H]2CC[C@@H](C)[C@H](O)C2)n1 [Example 240, 4-((1R,3R,4R)-3-hydroxy-4-methylcyclohexylamino)-2-(isopropylamino)pyrimidine-5-carboxamide]
< 200	C[C@@H](Nc1nc(N[C@H]2CCCOC2)ncc1C(N)=O)C1CC1 [Example 422, 4-((R)-1-cyclopropylethylamino)-2-((S)-tetrahydro-2H-pyran-3-ylamino)pyrimidine-5-carboxamide]
< 200	CC(C)(C)C(C)(C)Nc1nc(N[C@H]2CC[C@H](O)CC2)ncc1C(N)=O [Example 334, 2-((1r,4r)-4-hydroxycyclohexylamino)-4-(2,3,3-trimethylbutan-2-ylamino)pyrimidine-5-carboxamide]
< 200	CCO[C@H]1CC[C@H](Nc2ncc(C(N)=O)c(NC34CCC(C3)C4)n2)CC1 [Example 462, 4-(bicyclo[2.1.1]hexan-1-ylamino)-2-((1r,4r)-4-ethoxycyclohexylamino)pyrimidine-5-carboxamide]
< 200	CCC(CC)Nc1ncc(C(N)=O)c(N[C@@H]2CCC[C@H](O)C2)n1 [Example 498, 4-((1R,3S)-3-hydroxycyclohexylamino)-2-(pentan-3-ylamino)pyrimidine-5-carboxamide]
< 200	CC(C)(C)Nc1nc(N[C@H]2CC[C@H](OC(F)F)CC2)ncc1C(N)=O [Example 319, 4-(tert-butylamino)-2-((1r,4r)-4-(difluoromethoxy)cyclohexylamino)pyrimidine-5-carboxamide]
< 200	C[C@@H]1CC[C@@H](Nc2nc(NC3(C)CCCC3)ncc2C(N)=O)C[C@H]1O [Example 475, 4-((1R,3R,4R)-3-hydroxy-4-methylcyclohexylamino)-2-(1-methylcyclopentylamino)pyrimidine-5-carboxamide]
< 200	NC(=O)c1cnc(NC2CC2)nc1N[C@@H]1CCCC[C@H](O)C1 [Example 377, 2-(cyclopropylamino)-4-((1R,3S)-3-hydroxycycloheptylamino)pyrimidine-5-carboxamide]
< 200	CCO[C@H]1CC[C@H](Nc2ncc(C(N)=O)c(N[C@H](C)C(C)(C)C)n2)CC1 [Example 277, 4-((R)-3,3-dimethylbutan-2-ylamino)-2-((1r,4R)-4-ethoxycyclohexylamino)pyrimidine-5-carboxamide]
< 200	CCC(C)(C)Nc1nc(N[C@H]2CC[C@H](O)CC2)ncc1C(N)=O [Example 225, 2-((1r,4r)-4-hydroxycyclohexylamino)-4-(tert-pentylamino)pyrimidine-5-carboxamide]
< 200	CCCC(C)(C)Nc1nc(N[C@H]2CC[C@H](O)CC2)ncc1C(N)=O [Example 390, 2-((1r,4r)-4-hydroxycyclohexylamino)-4-(2-methylpentan-2-ylamino)pyrimidine-5-carboxamide]
< 200	CC1CCC1Nc1nc(N[C@H]2CC[C@H](OCC(F)(F)F)CC2)ncc1C(N)=O (some centres unmarked) [Example 258, 4-(2-methylcyclobutylamino)-2-((1r,4r)-4-(2,2,2-trifluoroethoxy)cyclohexylamino)pyrimidine-5-carboxamide]
200 to 800	CC(C)Nc1nc(NC2CCOCC2)ncc1C(N)=O [Example 222, 4-(isopropylamino)-2-(tetrahydro-2H-pyran-4-ylamino)pyrimidine-5-carboxamide]
< 200	NC(=O)c1cnc(NC23CCC(O)(CC2)CC3)nc1NC1CCC1 [Example 232, 4-(cyclobutylamino)-2-(4-hydroxybicyclo[2.2.2]octan-1-ylamino)pyrimidine-5-carboxamide]
< 200	C[C@]1(O)CCC[C@@H](Nc2nc(NC3CC3)ncc2C(N)=O)C1 [Example 378, 2-(cyclopropylamino)-4-((1R,3S)-3-hydroxy-3-methylcyclohexylamino)pyrimidine-5-carboxamide]
< 200	CCO[C@H]1CC[C@H](Nc2ncc(C(N)=O)c(NC3(CC)CCCC3)n2)CC1 [Example 464, 2-((1r,4r)-4-ethoxycyclohexylamino)-4-(1-ethylcyclopentylamino)pyrimidine-5-carboxamide]

same assay, conditions: tested in one or more of the JNK1 biochemical assays; read-out: Act. Level (JNK1 biochemical assay IC50 activity level)

IC50 [nM]	Structure (SMILES)
< 200	CN[C@H]1CC[C@H](Nc2ncc(C(N)=O)c(N[C@@H]3CCC[C@H](O)C3)n2)CC1 [Example A-49, 4-((1R,3S)-3-hydroxycyclohexylamino)-2-((1r,4R)-4-(methylamino)cyclohexylamino)pyrimidine-5-carboxamide]
200 to 800	COC[C@H]1CC[C@H](Nc2ncc(C(N)=O)c(N[C@H]3CCN(C(C)=O)C3)n2)CC1 [Example A-85, 4-((S)-1-acetylpyrrolidin-3-ylamino)-2-((1r,4S)-4-(methoxymethyl)cyclohexylamino)pyrimidine-5-carboxamide]
1000 to 10000	CCNC(=O)[C@H]1CC[C@@H](Nc2nc(NC3CC3)ncc2C(N)=O)CC1 [Example A-137, 2-(cyclopropylamino)-4-((1s,4s)-4-(ethylcarbamoyl)cyclohexylamino)pyrimidine-5-carboxamide]
< 200	CO[C@H]1CC[C@H](Nc2ncc(C(N)=O)c(N[C@H]3CC[C@@H](C(=O)N(C)C)CC3)n2)CC1 [Example A-118, 4-((1s,4s)-4-(dimethylcarbamoyl)cyclohexylamino)-2-((1r,4r)-4-methoxycyclohexylamino)pyrimidine-5-carboxamide]
< 200	CO[C@@H]1CCC[C@@H](Nc2ncc(C(N)=O)c(N[C@@H]3CCC[C@H](O)C3)n2)CC1 [Example A-201, 4-((1R,3S)-3-hydroxycyclohexylamino)-2-((1R,4R)-4-methoxycycloheptylamino)pyrimidine-5-carboxamide]
200 to 800	CC(C)Nc1ncc(C(N)=O)c(N[C@H]2CC[C@@H](NC(=O)C(C)C)CC2)n1 [Example A-142, 4-((1s,4s)-4-isobutyramidocyclohexylamino)-2-(isopropylamino)pyrimidine-5-carboxamide]
< 200	C[C@]1(O)CCC[C@@H](Nc2nc(NC3CCOCC3)ncc2C(N)=O)C1 [Example A-169, 4-((1R,3S)-3-hydroxy-3-methylcyclohexylamino)-2-(tetrahydro-2H-pyran-4-ylamino)pyrimidine-5-carboxamide]
< 200	CCO[C@H]1CC[C@H](Nc2ncc(C(N)=O)c(NC3CCC[C@H]3O)n2)CC1 (stereo partly drawn) [Example A-66, 2-((1r,4R)-4-ethoxycyclohexylamino)-4-((1R,2R)-2-hydroxycyclopentylamino)pyrimidine-5-carboxamide]
200 to 800	CC(C)Nc1ncc(C(N)=O)c(N[C@H]2CC[C@@H](CO)CC2)n1 [Example A-139, 4-((1s,4s)-4-(hydroxymethyl)cyclohexylamino)-2-(isopropylamino)pyrimidine-5-carboxamide]
200 to 800	NC(=O)c1cnc(N[C@H]2CC[C@](O)(c3ccccc3)CC2)nc1N[C@H]1CCC[C@@H]1O [Example A-70, 2-((1s,4R)-4-hydroxy-4-phenylcyclohexylamino)-4-((1S,2S)-2-hydroxycyclopentylamino)pyrimidine-5-carboxamide]
